In article PMC8491162, “Targeting the JAK/STAT Pathway: A Combined Ligand- and Target-Based Approach” (Journal of Chemical Information and Modeling, 2021):
Counter-ions that a name gives are not always drawn. Like-named read-outs stand apart in the source and are kept apart here.

Assays:
JAK2 [1] = biological target: T1, JAK2 (Homo sapiens, UniProt O60674); set-up: method as in earlier work; conditions: Figure 13; read-out: IC50 of commercially available JAK2 inhibitors; cited from earlier work
T1 construct: purchased BPS Bioscience

JAK2 [2] = biological target: T1, JAK2; experiment: JAK2 activity assay (JAK2 assay kit, BPS Bioscience; Kinase Glo Max luminescence); assay type: biochemical
Procedure: According to the manufacturer’s instructions, the assay was performed in a white 96-well plate, in a total volume of 50 μL, adding a 5× kinase assay buffer, ATP (500 μM), protein tyrosine kinase substrate (10 mg/mL), water, tested molecules diluted in 0.1% DMSO solution, and JAK2 enzyme (2.5 ng/μL).
After 15 min of incubation at room temperature, the luminescence was measured by EnSpire Multimode Plate Reader (Perkin Elmer). All measurements were performed in triplicates for each compound, and the concentration range tested was 0.1–10 000 nM.

[3] = Solubility for in vitro testing; assay type: physicochemical; conditions: reason for not testing in vitro
SH-SY5Y cells = experiment: MTT cell viability assay; assay type: cell-based, Human; conditions: 100 μM, after 5 or 24 h, vs vehicle control
Procedure: Human SH-SY5Y neuroblastoma cells purchased from ICLC-IST (Genoa, Italy), were cultured in Dulbecco’s modified Eagle’s medium (DMEM), supplemented with 10% (v/v) fetal bovine serum (FBS), 100 units/mL penicillin, 100 μg/mL streptomycin, and 2 mM glutamine. Cells were incubated at 37 °C in a humidified atmosphere containing 5% CO2 and were allowed to reach 80% confluence before starting treatments. All reagents employed for cell culture were purchased from Lonza (Milan, Italy).
Drugs effects on cell viability were measured using the MTT [3-(4,5-dimethylthiazol-2-yl)-2,5-diphenyltetrazolium bromide] assay.[40] All reagents were purchased from Sigma-Aldrich (Milan, Italy) unless otherwise indicated. Briefly, cells were plated on 24-well plates at a density of 3 × 10^4 cells/well and were grown to reach 80% confluence. Cells were treated with vehicle (DMEM containing 0.1% dimethyl sulfoxide (DMSO)) or drugs dissolved in vehicle at the final concentrations of 1, 10, or 100 μM. After 5 or 24 h, the culture medium was removed and replaced with fresh DMEM containing the MTT solution (0.5 mg/mL) and cells were incubated in the dark for 3 h at 37 °C. […] The optical densities (ODs) were then recorded using a microplate spectrophotometer (GENios Tecan, Austria) at 590 nm. Results were expressed as a percentage of OD values of drug-treated cell cultures compared to vehicle-treated ones.

[4] = 95% confidence limits in brackets, triplicates, read-out: IC50 in the enzymatic assay for JAK2 inhibition
[5] = as quoted in abstract and conclusions, read-out: IC50 against JAK2

T1 sequence (O60674 whole entry): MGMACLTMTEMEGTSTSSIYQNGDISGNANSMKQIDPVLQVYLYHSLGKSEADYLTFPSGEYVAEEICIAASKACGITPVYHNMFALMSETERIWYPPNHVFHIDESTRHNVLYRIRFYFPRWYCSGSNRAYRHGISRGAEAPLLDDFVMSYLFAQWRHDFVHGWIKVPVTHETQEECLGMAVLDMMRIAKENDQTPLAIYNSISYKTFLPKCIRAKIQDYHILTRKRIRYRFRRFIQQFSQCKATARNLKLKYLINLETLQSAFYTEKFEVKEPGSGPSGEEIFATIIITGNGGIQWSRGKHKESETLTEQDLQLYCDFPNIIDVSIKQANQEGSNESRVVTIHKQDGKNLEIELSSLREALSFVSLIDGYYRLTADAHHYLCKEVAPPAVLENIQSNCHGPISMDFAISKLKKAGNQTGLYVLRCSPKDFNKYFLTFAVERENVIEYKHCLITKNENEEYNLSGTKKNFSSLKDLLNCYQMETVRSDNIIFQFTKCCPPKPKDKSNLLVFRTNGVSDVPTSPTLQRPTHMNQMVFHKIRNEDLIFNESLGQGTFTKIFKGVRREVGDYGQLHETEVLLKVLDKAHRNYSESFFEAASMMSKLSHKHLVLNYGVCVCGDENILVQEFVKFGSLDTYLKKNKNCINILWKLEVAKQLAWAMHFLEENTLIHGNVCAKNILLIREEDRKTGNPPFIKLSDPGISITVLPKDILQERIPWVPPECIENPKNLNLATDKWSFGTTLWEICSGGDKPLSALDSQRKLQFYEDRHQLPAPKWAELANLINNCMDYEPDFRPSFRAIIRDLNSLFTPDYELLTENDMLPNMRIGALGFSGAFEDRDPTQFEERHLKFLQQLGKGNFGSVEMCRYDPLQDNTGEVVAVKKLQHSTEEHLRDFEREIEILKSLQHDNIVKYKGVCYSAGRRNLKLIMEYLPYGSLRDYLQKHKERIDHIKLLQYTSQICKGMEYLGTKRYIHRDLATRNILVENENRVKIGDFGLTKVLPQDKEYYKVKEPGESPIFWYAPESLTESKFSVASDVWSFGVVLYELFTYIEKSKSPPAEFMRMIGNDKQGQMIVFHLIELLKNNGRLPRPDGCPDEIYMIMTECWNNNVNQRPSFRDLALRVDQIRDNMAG

IC50 (JAK2 [2]; [4]) [nM]	Structure (SMILES)	IC50 (JAK2 [1]) [nM]	other results
	CC(=O)Nc1cc(Oc2ccc3c(nc(Nc4ccc(F)cc4F)n3C)c2C)ccn1 [CHZ868]	170	
	C[C@H](NC(=O)/C(C#N)=C/c1cccc(Br)n1)c1ccccc1 [WP1066]	2300	
637	NS(=O)(=O)c1ccc(NC(=O)Cn2cnc3scc(-c4ccco4)c3c2=O)cc1 [Compound 7]		IC50 (JAK2 [2]; [5]): 640 nM
807	O=C1C2C3C=CC(CO)(O3)C2C(=O)N1c1cccc([N+](=O)[O-])c1 (stereo not shown) [Compound 4]		IC50 (JAK2 [2]; [5]): 810 nM
> 10000	CC(=O)c1oc2ccccc2c1N [Compound 1]		
	COCCNC(=O)c1cc2c(=O)n3cccc(C)c3nc2n(Cc2ccco2)c1=N [Compound 2]		Solubility [3]: solubility problems
> 10000	O=C(O)CSc1nnc2n1CCCN2 [Compound 6]		Cell viability (MTT) (SH-SY5Y cells): significant decrease
	CCCC1(CCC)CCC2(CCN(CCCN(CC)CC)C2)CC1 [Atiprimod dihydrochloride]	400	
	CC(CCc1ccccn1)(CCc1ccccn1)C(=O)c1ccccc1 [NSC 42834]	15000	
> 10000	COc1cccc(C2C(C#N)=C(N)Oc3[nH]nc(C)c32)c1 (stereo not shown) [Compound 3]		
> 10000	Cc1n[nH]c(C)c1C(=O)CC1(O)C(=O)N(Cc2ccccc2)c2ccccc21 (stereo not shown) [Compound 5]		
> 10000	COC(=O)C1=C(C)NC(C)=C(C(=O)OCCN2CCN(C(=O)c3ccco3)CC2)C1c1cccc([N+](=O)[O-])c1 (stereo not shown) [Compound 8]		Cell viability (MTT) (SH-SY5Y cells): significant decrease
